# Source: publication PMC7305236, “The atypical chemokine receptor ACKR3/CXCR7 is a broad-spectrum scavenger for opioid peptides” (Nature Communications, 2020)
# Where two headings read alike, the source gives them in different places. Starred links: 1 amine or outer side, 2 acyl side, 3 side chain; linkers in the order of their positions; H or OH if unused. Non-standard residues stand in square brackets, D forms with d. Residues, ends and D or L forms follow the SMILES beside them. X1 = N[C@@H](Cc1ccccc1)CN(CC(=O)[*:2])[*:1]
# Experiments:
# Experiment in all cases: Figure S2a opioid peptide screen on chemokine receptors
# Format in all cases: cell-based
# Design in all cases: dose or concentration left out as unconfirmed
# [1] = molecular target: T1, CXCR2 (Homo sapiens, UniProt P25025)
# T1 construct: expressed in transfected cells
# T1 sequence (P25025 1-360): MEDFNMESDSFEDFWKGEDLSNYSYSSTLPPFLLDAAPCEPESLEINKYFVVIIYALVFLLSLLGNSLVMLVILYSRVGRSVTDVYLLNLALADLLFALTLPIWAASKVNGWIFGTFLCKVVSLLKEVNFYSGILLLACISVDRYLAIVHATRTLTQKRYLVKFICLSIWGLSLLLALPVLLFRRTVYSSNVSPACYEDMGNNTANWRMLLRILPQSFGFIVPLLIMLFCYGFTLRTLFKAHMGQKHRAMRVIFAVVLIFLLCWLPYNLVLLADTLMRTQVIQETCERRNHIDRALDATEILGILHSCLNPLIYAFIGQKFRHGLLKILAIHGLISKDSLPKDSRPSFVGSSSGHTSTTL
# [2] = molecular target: T2, CCR2 (Homo sapiens, UniProt P41597)
# T2 construct: expressed in transfected cells
# T2 sequence (P41597 1-360 isoform P41597-2): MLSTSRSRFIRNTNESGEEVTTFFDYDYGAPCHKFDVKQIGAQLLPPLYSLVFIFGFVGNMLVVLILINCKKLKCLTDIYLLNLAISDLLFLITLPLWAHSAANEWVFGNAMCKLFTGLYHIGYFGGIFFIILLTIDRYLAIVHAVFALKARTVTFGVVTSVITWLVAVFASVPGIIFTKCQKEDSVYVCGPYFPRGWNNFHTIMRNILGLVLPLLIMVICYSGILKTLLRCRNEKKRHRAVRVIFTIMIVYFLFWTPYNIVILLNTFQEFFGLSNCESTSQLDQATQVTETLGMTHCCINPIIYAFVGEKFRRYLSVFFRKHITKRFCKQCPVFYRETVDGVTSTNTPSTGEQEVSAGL
# [3] = molecular target: T3, CXCR6 (Homo sapiens, UniProt O00574)
# T3 construct: expressed in transfected cells
# [4] = molecular target: T4, XCR1 (Homo sapiens, UniProt P46094)
# T4 construct: expressed in transfected cells
# T4 sequence (P46094 1-333): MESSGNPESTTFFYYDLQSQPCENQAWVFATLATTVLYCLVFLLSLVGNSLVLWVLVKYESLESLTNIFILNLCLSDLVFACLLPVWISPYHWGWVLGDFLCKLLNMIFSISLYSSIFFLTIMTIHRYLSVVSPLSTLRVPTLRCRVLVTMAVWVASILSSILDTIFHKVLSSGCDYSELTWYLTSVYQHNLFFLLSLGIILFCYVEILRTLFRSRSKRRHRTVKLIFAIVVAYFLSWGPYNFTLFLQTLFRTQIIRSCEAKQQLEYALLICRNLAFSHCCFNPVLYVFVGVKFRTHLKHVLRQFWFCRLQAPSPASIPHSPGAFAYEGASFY
# [5] = molecular target: T5, CXCR5 (Homo sapiens, UniProt P32302)
# T5 construct: expressed in transfected cells
# T5 sequence (P32302 1-372): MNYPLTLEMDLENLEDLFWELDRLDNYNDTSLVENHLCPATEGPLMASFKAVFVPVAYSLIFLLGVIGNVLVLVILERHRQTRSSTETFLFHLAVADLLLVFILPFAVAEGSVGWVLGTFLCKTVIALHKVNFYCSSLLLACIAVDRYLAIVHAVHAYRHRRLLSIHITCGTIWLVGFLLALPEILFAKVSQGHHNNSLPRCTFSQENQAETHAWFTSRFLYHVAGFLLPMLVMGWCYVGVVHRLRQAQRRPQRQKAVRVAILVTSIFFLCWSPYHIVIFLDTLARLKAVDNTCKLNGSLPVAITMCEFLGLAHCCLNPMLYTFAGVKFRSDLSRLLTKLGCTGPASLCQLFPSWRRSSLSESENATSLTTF
# [6] = replicate 1, read-out: CXCR2 activity, ctrl+ = 100
# [7] = replicate 2, read-out: CXCR2 activity, ctrl+ = 100
# [8] = replicate 3, read-out: CXCR2 activity, ctrl+ = 100
# [9] = replicate 1, read-out: CCR2 activity, ctrl+ = 100
# [10] = replicate 2, read-out: CCR2 activity, ctrl+ = 100
# [11] = replicate 3, read-out: CCR2 activity, ctrl+ = 100
# [12] = replicate 1, read-out: CXCR6 activity, ctrl+ = 100
# [13] = replicate 2, read-out: CXCR6 activity, ctrl+ = 100
# [14] = replicate 3, read-out: CXCR6 activity, ctrl+ = 100
# [15] = replicate 1, read-out: XCR1 activity, ctrl+ = 100
# [16] = replicate 2, read-out: XCR1 activity, ctrl+ = 100
# [17] = replicate 3, read-out: XCR1 activity, ctrl+ = 100
# [18] = replicate 1, read-out: CXCR5 activity, ctrl+ = 100
# [19] = replicate 2, read-out: CXCR5 activity, ctrl+ = 100
# [20] = replicate 3, read-out: CXCR5 activity, ctrl+ = 100
# T3 sequence (O00574 whole entry): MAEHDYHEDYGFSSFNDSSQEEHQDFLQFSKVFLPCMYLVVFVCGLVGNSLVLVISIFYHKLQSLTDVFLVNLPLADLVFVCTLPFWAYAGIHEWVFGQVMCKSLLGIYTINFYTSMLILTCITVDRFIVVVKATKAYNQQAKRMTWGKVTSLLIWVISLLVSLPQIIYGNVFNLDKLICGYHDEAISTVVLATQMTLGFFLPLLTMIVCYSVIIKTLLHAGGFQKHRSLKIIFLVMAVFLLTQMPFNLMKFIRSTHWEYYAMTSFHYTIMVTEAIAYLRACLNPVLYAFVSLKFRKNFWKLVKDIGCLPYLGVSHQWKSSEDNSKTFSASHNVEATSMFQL
SMILES,"activation [1, 6] [%]","activation [1, 7] [%]","activation [1, 8] [%]","activation [2, 9] [%]","activation [2, 10] [%]","activation [2, 11] [%]","activation [3, 12] [%]","activation [3, 13] [%]","activation [3, 14] [%]","activation [4, 15] [%]","activation [4, 16] [%]","activation [4, 17] [%]","activation [5, 18] [%]","activation [5, 19] [%]","activation [5, 20] [%]"
CSCC[C@H](NC(=O)[C@H](Cc1ccccc1)NC(=O)CNC(=O)CNC(=O)[C@@H](N)Cc1ccc(O)cc1)C(=O)N[C@@H](CCCNC(=N)N)C(=O)N[C@@H](CCCNC(=N)N)C(=O)N[C@H](C(N)=O)C(C)C [Adrenorphin],3.42,-6.62,-0.394,-0.901,-1.07,-1.1,0.866,-0.941,-0.716,-2.07,2.59,12.1,-2.55,-4.15,2.83
CSCC[C@H](NC(=O)[C@H](Cc1ccccc1)NC(=O)CNC(=O)CNC(=O)[C@@H](N)Cc1ccc(O)cc1)C(=O)N[C@@H](CCCNC(=N)N)C(=O)N[C@@H](CCCNC(=N)N)C(=O)N[C@H](C(=O)NCC(=O)N[C@@H](CCCNC(=N)N)C(=O)N1CCC[C@H]1C(=O)N[C@@H](CCC(=O)O)C(=O)N[C@@H](Cc1c[nH]c2ccccc12)C(=O)N[C@@H](Cc1c[nH]c2ccccc12)C(=O)N[C@@H](CCSC)C(=O)N[C@@H](CC(=O)O)C(=O)N[C@@H](Cc1ccc(O)cc1)C(=O)N[C@@H](CCC(N)=O)C(=O)N[C@@H](CCCCN)C(=O)N[C@@H](CCCNC(=N)N)C(=O)N[C@@H](Cc1ccc(O)cc1)C(=O)NCC(=O)O)C(C)C [BAM22],-3.38,-4.91,-1.55,-0.243,-1.08,1.22,-0.237,-0.939,-1.21,-2.25,-4.24,8.51,-1.51,-4.48,-1.8
CC[C@H](C)[C@H](NC(=O)[C@H](CCCNC(=N)N)NC(=O)[C@H](CCCNC(=N)N)NC(=O)[C@H](CC(C)C)NC(=O)[C@H](Cc1ccccc1)NC(=O)CNC(=O)CNC(=O)[C@@H](N)Cc1ccc(O)cc1)C(=O)N[C@@H](CCCNC(=N)N)C(=O)N1CCC[C@H]1C(=O)N[C@@H](CCCCN)C(=O)N[C@@H](CC(C)C)C(=O)N[C@@H](CCCCN)C(=O)O [Dynorphin 1-13],-2.31,-22.4,,-0.833,-2.52,,0.0731,-1.13,,-1.76,-0.309,,-0.575,-5.55,
CC[C@H](C)[C@H](NC(=O)[C@H](CCCNC(=N)N)NC(=O)[C@H](CCCNC(=N)N)NC(=O)[C@H](CC(C)C)NC(=O)[C@H](Cc1ccccc1)NC(=O)CNC(=O)CN)C(=O)N[C@@H](CCCNC(=N)N)C(=O)N1CCC[C@H]1C(=O)N[C@@H](CCCCN)C(=O)N[C@@H](CC(C)C)C(=O)N[C@@H](CCCCN)C(=O)N[C@@H](Cc1c[nH]c2ccccc12)C(=O)N[C@@H](CC(=O)O)C(=O)N[C@@H](CC(N)=O)C(=O)N[C@@H](CCC(N)=O)C(=O)O [Dynorphin 2-17],-7.18,-15.9,,0.747,-1.44,,-0.523,-1.13,,3.87,-3.46,,-2.49,-3.33,
CC[C@H](C)[C@H](NC(=O)[C@H](CCCNC(=N)N)NC(=O)[C@H](CCCNC(=N)N)NC(=O)[C@H](CC(C)C)NC(=O)[C@H](Cc1ccccc1)NC(=O)CNC(=O)CNC(=O)[C@@H](N)Cc1ccc(O)cc1)C(=O)N[C@@H](CCCNC(=N)N)C(=O)N1CCC[C@H]1C(=O)N[C@@H](CCCCN)C(=O)N[C@@H](CC(C)C)C(=O)N[C@@H](CCCCN)C(=O)N[C@@H](Cc1c[nH]c2ccccc12)C(=O)N[C@@H](CC(=O)O)C(=O)N[C@@H](CC(N)=O)C(=O)N[C@@H](CCC(N)=O)C(=O)O [Dynorphin A],-9.63,-9.59,0.355,-0.0585,-2.61,-0.105,-0.0479,-0.578,0.283,4.69,7.1,11,-1.81,-4.52,9.35
NC(=O)[C@H](Cc1ccccc1)NC(=O)[C@H](Cc1c[nH]c2ccccc12)NC(=O)[C@@H]1CCCN1C(=O)[C@@H](N)Cc1ccc(O)cc1 [Endomorphin-1],0.676,-3.23,,0.794,-3.22,,-0.315,1.12,,4.23,6.11,,1.35,-1.48,
C[C@H](NC(=O)CNC(=O)[C@@H](NC(=O)[C@H](Cc1ccccc1)NC(=O)CNC(=O)CNC[C@@H](N)Cc1ccccc1)[C@@H](C)O)C(=O)N[C@@H](CCCNC(=N)N)C(=O)N[C@@H](CCCCN)C(=O)N[C@@H](CO)C(=O)N[C@@H](C)C(=O)N[C@@H](CCCNC(=N)N)C(=O)N[C@@H](CCCCN)C(N)=O [FG Nociceptin 1-13] (H-[X1]GFTGARKSARK-NH2),-5.21,-6.16,-0.318,-0.148,-0.651,0.99,-0.041,0.0677,0.612,0.7,1.1,16.8,-5.41,-2.11,-0.496
C[C@H](NC(=O)CNC(=O)[C@@H](NC(=O)[C@H](Cc1ccccc1)NC(=O)CNC(=O)CNC(=O)[C@@H](N)Cc1ccccc1)[C@@H](C)O)C(=O)N[C@@H](CCCNC(=N)N)C(=O)N[C@@H](CCCCN)C(=O)N[C@@H](CO)C(=O)N[C@@H](C)C(=O)N[C@@H](CCCNC(=N)N)C(=O)N[C@@H](CCCCN)C(N)=O [Nociceptin 1-13],-8.55,-9.95,-4.53,0.793,-0.93,1.52,-0.349,-0.882,2.41,2.91,3.06,4.45,-3.96,-2.66,-1.89
CC(C)C[C@H](NC(=O)[C@H](CCCCN)NC(=O)[C@H](CCCN=C(N)N)NC(=O)[C@H](C)NC(=O)[C@H](CO)NC(=O)[C@H](CCCCN)NC(=O)[C@H](CCCN=C(N)N)NC(=O)[C@H](C)NC(=O)CNC(=O)[C@@H](NC(=O)[C@H](Cc1ccccc1)NC(=O)CNC(=O)CNC(=O)[C@@H](N)Cc1ccccc1)[C@@H](C)O)C(=O)N[C@@H](C)C(=O)N[C@@H](CC(N)=O)C(=O)N[C@@H](CCC(N)=O)C(=O)O [Nociceptin],-2.08,-14.7,,-0.0919,-3.09,,-0.607,-0.718,,1.08,-2.39,,-2.94,-7.28,
